Several values for one entry are separate records, joined by “and”; a condition that tells them apart may be missing. Equal entries are not always repeated.
Experiments:
[1] = system: labile iron pool of MCF-7 cells; assay: Calcein-AM assay, access to the labile iron pool; format: cell-based, human; parameters: Calcein fluorescence: unit not given here; conditions: 10 μM; for Calcein fluorescence: mean (průměr)
Description: These experiments were performed according to Glickstein et al. with slight modifications. The MCF-7 cells were seeded in 96-well plates (10,000 cells/well) and allowed to adhere for 24 h/37°C. Cells were loaded with iron using the cellular iron donor, ferric ammonium citrate (530 μg/mL), 24 h prior to the experiment, and then washed. To prevent potential interference, especially with regard to various trace elements, the medium was replaced with ADS buffer (prepared using Millipore water supplemented with 116 mM NaCl, 5.3 mM KCl, 1 mM CaCl2, 1.2 mM MgSO4, 1.13 mM NaH2PO4, 5 mM D-glucose, and 20 mM HEPES, pH 7.4). Cells were then loaded with 2 μM of the cell-permeable calcein green acetoxymethyl ester (calcein-AM; Molecular Probes, Oregon, USA) for 30 min/37°C and washed. Cellular esterases cleave the acetoxymethyl groups to form the cell membrane-impermeable compound, calcein green. The fluorescence of calcein green is quenched upon binding iron. The intracellular fluorescence (λex = 488 nm; λem = 530 nm) of calcein green was then followed as a function of time (10 min after the addition of 10 μM Bp4eT or its metabolites) at 37°C using the Tecan Infinite 200M plate reader. The iron chelation efficacy of the metabolites in cells was expressed as a percentage of the efficacy of the parent chelator, Bp4eT (100%).

[2] = Ascorbate oxidation assay (redox activity of iron complexes); format: biochemical;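 on %Fe 30min (ascorbate oxidation, Fe 100%), průměr: IBE 3 means excess free chelator over iron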;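 on %Fe 30min (ascorbate oxidation, Fe 100%): IBE 3 means excess free chelator over iron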;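 on %Fe 30min: ascorbate oxidation as % of the Fe control (Fe 100%): IBE 0.1 means iron-binding equivalents with iron in excess over chelator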;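 on Change of absorbance, odečet 0 (time 0 subtracted), čas 10, průměr: IBE 3 means excess free chelator over 10 µM FeCl3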;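 on Change of absorbance, odečet 0 (time 0 subtracted), čas 10: IBE 3 means excess free chelator over 10 µM FeCl3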
Description: The ascorbate oxidation assay was used to assess the redox activity of the iron complexes of the chelators using an established protocol. In brief, 100 μM ascorbic acid was prepared immediately prior to the experiment and incubated either alone or in the presence of 10 μM FeCl3 in a 50-fold molar excess (500 μM) of citrate and the chelators. Chelators were assayed at iron-binding equivalents (IBE) of 0.1 (excess of iron), 1 (fully coordinated iron—chelator complexes) and 3 (excess of free chelator). […] The decrease of absorbance between the two time points was calculated and expressed as a percentage of control without the chelator.

[3] = system: MCF-7 cells prelabeled with 59Fe2-transferrin; assay: Mobilization (efflux) of cellular 59Fe; format: cell-based, human; parameters: Efflux 59Fe / Efflux 59Fe, Ave: unit not given here
Description: Human transferrin (Sigma) was labeled with ^56Fe or ^59Fe (PerkinElmer, Massachusetts, USA) to produce ^56Fe2-transferrin or ^59Fe2-transferrin (^59Fe2-Tf), respectively, with a final specific activity of 500 pCi/pmol Fe, as previously described. Unbound ^59Fe was removed by exhaustive vacuum dialysis against a large excess of 0.15 M NaCl buffered to pH 7.4 with 1.4% NaHCO3 by standard methods.
To examine the ability of studied compounds to mobilize cellular ^59Fe from MCF-7 cells, iron efflux experiments were performed using established techniques. In brief, after pre-labeling confluent MCF-7 cells on 6-well plates with 0.75 μM ^59Fe2-Tf for 3 h/37°C, the cells were washed four times with ice-cold PBS and then subsequently incubated with 25 μM of Bp4eT or its metabolites for 3 h/37°C. The overlying medium containing released ^59Fe was then decanted from the cells. Radioactivity was measured in both the cells and the supernatant using a γ-scintillation counter (Wallac Wizard 3, Turku, Finland).

[4] = sheet IBE 1, time 10, replicates
[5] = sheet IBE 1, time 20, replicates
[6] = sheet IBE 1, time 30, replicates

CCNC(=O)NN=C(c1ccccc1)c1ccccn1 [Z-Bp4eS, 2-benzoylpyridine 4-ethylsemicarbazone]
Calcein fluorescence ([1]; 30 sec): 11.525 | Calcein fluorescence ([1]; 60 sec): 8.244 | Calcein fluorescence ([1]; 90 sec): 15.042 | Calcein fluorescence ([1]; 120 sec): 10.528 | Calcein fluorescence ([1]; 300 sec): 1.225 | Calcein fluorescence ([1]; 600 sec): 2.196 | Chelation efficacy: fluorescence of free calcein at t = 600 s as percentage of Bp4eT ([1]; MCF-7, mean of 6 experiments): 0.9956% | Fluorescence of free calcein at 600 s as percentage of Bp4eT ([1]; MCF-7, single experiments): 0% and 5.974% | %Fe 30min: ascorbate oxidation as % of the Fe control (Fe 100%) ([2]; IBE 0.1, 30 min, mean (průměr)): 99.02% | Change of absorbance after subtraction of time 0 (odečet 0) ([2]; IBE 0.1, time 10, mean (průměr)): -0.03387 | Change of absorbance after subtraction of time 0 (odečet 0) ([2]; IBE 0.1, time 20, mean (průměr)): -0.06534 | Change of absorbance after subtraction of time 0 (odečet 0) ([2]; IBE 0.1, time 30, mean (průměr)): -0.09415 | Absorbance (ascorbate, λ = 265 nm) ([2]; IBE 0.1, čas 0 (time 0), mean (průměr)): 0.7817 | Absorbance (ascorbate, λ = 265 nm) ([2]; IBE 0.1, čas 10 (time 10), mean (průměr)): 0.7478 | Absorbance (ascorbate, λ = 265 nm) ([2]; IBE 0.1, čas 20 (time 20), mean (průměr)): 0.7164 | Absorbance (ascorbate, λ = 265 nm) ([2]; IBE 0.1, čas 30 (time 30), mean (průměr)): 0.6875 | %Fe 30min (ascorbate oxidation, Fe = 100%), průměr (mean) ([2]; sheet IBE 1, 30min, Fe 100%, mean): 102.1% | %Fe 30min (ascorbate oxidation, Fe = 100%), single replicates ([2]; sheet IBE 1, 30min, Fe 100%, replicates): 100.6% and 105.4% and 99.81% and 137.6% and 115.7% and 98.81% and 93.49% and 86.5% and 81.2% | raw reading at čas 0 (time 0), průměr (mean) ([2]; sheet IBE 1, time 0, mean of 9 readings): 0.8114 | raw reading at čas 0 (time 0), single replicates ([2]; sheet IBE 1, time 0, replicates of 2014-03-24 (two runs) and 2014-03-25): 0.8361 and 0.825 and 0.7812 and 0.7956 and 0.8012 and 0.8226 and 0.8158 and 0.7997 and 0.8255 | odečet 0 (reading minus time 0 reading) at čas 10, průměr (mean) ([2]; sheet IBE 1, time 10, mean): -0.03354 | raw reading at čas 10 (time 10), průměr (mean) ([2]; sheet IBE 1, time 10, mean of 9 readings): 0.7779 | odečet 0 (reading minus time 0 reading) at čas 10, single replicates [2, 4]: -0.0282 and -0.0302 and -0.027 and -0.05761 and -0.03481 and -0.02931 and -0.03593 and -0.03173 and -0.02703 | raw reading at čas 10 (time 10), single replicates [2, 4]: 0.753 and 0.7654 and 0.7742 and 0.765 and 0.781 and 0.7704 and 0.7896 and 0.8044 and 0.798 | odečet 0 (reading minus time 0 reading) at čas 20, průměr (mean) ([2]; sheet IBE 1, time 20, mean): -0.06288 | raw reading at čas 20 (time 20), průměr (mean) ([2]; sheet IBE 1, time 20, mean of 9 readings): 0.7486 | odečet 0 (reading minus time 0 reading) at čas 20, single replicates [2, 5]: -0.05822 and -0.05772 and -0.05662 and -0.09103 and -0.07213 and -0.05933 and -0.06186 and -0.05806 and -0.05096 | raw reading at čas 20 (time 20), single replicates [2, 5]: 0.723 and 0.7379 and 0.7446 and 0.7316 and 0.7437 and 0.7404 and 0.7637 and 0.7781 and 0.7741 | odečet 0 (reading minus time 0 reading) at čas 30, průměr (mean) ([2]; sheet IBE 1, time 30, mean): -0.09054 | raw reading at čas 30 (time 30), průměr (mean) ([2]; sheet IBE 1, time 30, mean of 9 readings): 0.7209 | odečet 0 (reading minus time 0 reading) at čas 30, single replicates [2, 6]: -0.08693 and -0.09103 and -0.08623 and -0.1189 and -0.09997 and -0.08537 and -0.08823 and -0.08163 and -0.07663 | raw reading at čas 30 (time 30), single replicates [2, 6]: 0.6943 and 0.7046 and 0.715 and 0.7038 and 0.7159 and 0.7144 and 0.7373 and 0.7545 and 0.7484 | %Fe 30min (ascorbate oxidation, Fe 100%), průměr ([2]; sheet IBE 3, 30min, Fe alone = 100%, mean (průměr) of the 9 replicates): 110.1% | %Fe 30min (ascorbate oxidation, Fe 100%) ([2]; sheet IBE 3, 30min, Fe alone = 100%, single replicates): 104.7% and 99.68% and 110% and 146.8% and 116.1% and 111.6% and 112.3% and 95.38% and 93.85% | Change of absorbance, odečet 0 (time 0 subtracted), čas 10, průměr ([2]; sheet IBE 3, time 10 minus time 0, mean (průměr)): -0.03903 | Change of absorbance, odečet 0 (time 0 subtracted), čas 10 ([2]; sheet IBE 3, time 10 minus time 0, single replicates): -0.0367 and -0.0322 and -0.0443 and -0.057 and -0.0434 and -0.0428 and -0.03948 and -0.02878 and -0.02658 | Change of absorbance, odečet 0 (time 0 subtracted), čas 20, průměr ([2]; sheet IBE 3, time 20 minus time 0, mean (průměr)): -0.07371 | Change of absorbance, odečet 0 (time 0 subtracted), čas 20 ([2]; sheet IBE 3, time 20 minus time 0, single replicates): -0.07156 and -0.06896 and -0.07856 and -0.1012 and -0.07529 and -0.07709 and -0.07424 and -0.05944 and -0.05704 | Change of absorbance, odečet 0 (time 0 subtracted), čas 30, průměr ([2]; sheet IBE 3, time 30 minus time 0, mean (průměr)): -0.1017 | Change of absorbance, odečet 0 (time 0 subtracted), čas 30 ([2]; sheet IBE 3, time 30 minus time 0, single replicates): -0.09723 and -0.09253 and -0.1021 and -0.1363 and -0.1078 and -0.1036 and -0.1028 and -0.0873 and -0.0859 | Efflux 59Fe, Ave ([3]; average of all replicates): 3.856 | Efflux 59Fe ([3]; single replicate (three per date)): 5.4747 and 4.265 and 4.3539 and 3.0981 and 3.2068 and 3.9182 and 3.1551 and 3.9954 and 3.2369
